Results taken from PMC8371902, “Phase 1 study of M2698, a p70S6K/AKT dual inhibitor, in patients with advanced cancer” (Journal of Hematology & Oncology, 2021).
Where two headings read alike, the source gives them in different places.

Test system: patients with advanced metastatic cancer
Excerpt: In this phase 1 study, dose escalation was followed by expansion cohorts of once-daily, oral M2698 in continuous 21-day cycles. Primary objectives were to determine the maximum tolerated dose (MTD), dose-limiting toxicities (DLTs), and recommended phase 2 dose (RP2D). Secondary objectives were to assess safety and tolerability, pharmacokinetics (PK, including food effect) and antitumor activity. Pharmacodynamic biomarker assessments were exploratory. Treatment was discontinued if there was disease progression, toxicity or consent withdrawal.
In Part 1, M2698 monotherapy was investigated in a dose escalation with a food effect cohort. In Part 2, M2698 was investigated as monotherapy (expansion cohort) to further characterize safety, tolerability and pharmacokinetics, and assess antitumor activity in PAM + patients without confounding markers (exploratory).
Dose escalation analysis included all patients who experienced a DLT and those who received ≥ 80% of planned M2698 doses in cycle 1 without experiencing a DLT. Safety analysis included all patients who received ≥ 1 dose of M2698. PK analysis included all patients who received ≥ 1 dose of M2698 and had measurable plasma concentrations. Dose proportionality was tested using the power model (linear regression approach on the log -transformed scale).

## NC(=O)c1cccc2c(N[C@H](CN3CCC3)c3ccc(Cl)c(C(F)(F)F)c3)ncnc12 [M2698]
110 mg n=4
  M2698-related TEAE: Mucosal inflammation: 0
  M2698-related TEAE: Nausea: 1
  M2698-related TEAE: Nervous system disorders: 0
  M2698-related TEAE: Nightmare: 0
  M2698-related TEAE: Onychomadesis: 0
  M2698-related TEAE: Paranoia: 0
  M2698-related TEAE: Photosensitivity reaction: 0
  M2698-related TEAE: Posterior reversible encephalopathy syndrome: 0
  M2698-related TEAE: Pruritus generalised: 0
  M2698-related TEAE: Psychiatric disorders: 0
  M2698-related TEAE: Rash: 0
  M2698-related TEAE: Rash maculo-papular: 0
  M2698-related TEAE: Skin and subcutaneous tissue disorders: 0
  M2698-related TEAE: Subjects with at least one event: 1
  M2698-related TEAE: Transaminases increased: 0
  M2698-related TEAE: Tremor: 0
  M2698-related TEAE: Vision blurred: 0
  M2698-related TEAE: Vomiting: 0
  M2698-related TEAE: White blood cell count decreased: 0
160 mg n=6
  M2698-related TEAE: Abnormal dreams: 1
  M2698-related TEAE: Affect lability: 0
  M2698-related TEAE: Alanine aminotransferase increased: 0
  M2698-related TEAE: Amylase increased: 0
  M2698-related TEAE: Anaemia: 0
  M2698-related TEAE: Angina pectoris: 0
  M2698-related TEAE: Anxiety: 0
  M2698-related TEAE: Aphasia: 0
  M2698-related TEAE: Ataxia: 0
  M2698-related TEAE: Blood and lymphatic system disorders: 1
  M2698-related TEAE: Blood creatine phosphokinase increased: 0
  M2698-related TEAE: Blood creatinine increased: 0
  M2698-related TEAE: Cardiac disorders: 0
  M2698-related TEAE: Cognitive disorder: 0
  M2698-related TEAE: Constipation: 0
  M2698-related TEAE: Decreased appetite: 0
  M2698-related TEAE: Delusion: 0
  M2698-related TEAE: Depression: 0
  M2698-related TEAE: Diarrhoea: 0
  M2698-related TEAE: Diarrhoea haemorrhagic: 0
  M2698-related TEAE: Dizziness: 0
  M2698-related TEAE: Dry eye: 1
  M2698-related TEAE: Dry mouth: 1
  M2698-related TEAE: Dysgeusia: 1
  M2698-related TEAE: Dyspepsia: 0
  M2698-related TEAE: Dysphagia: 1
  M2698-related TEAE: Energy increased: 1
  M2698-related TEAE: Erythema: 1
  M2698-related TEAE: Euphoric mood: 1
  M2698-related TEAE: Eye disorders: 1
  M2698-related TEAE: Fatigue: 0
  M2698-related TEAE: Gamma-glutamyltransferase increased: 1
  M2698-related TEAE: Gastrointestinal disorders: 1
  M2698-related TEAE: Gastrooesophageal reflux disease: 0
  M2698-related TEAE: General disorders and administration site conditions: 1
  M2698-related TEAE: Headache: 0
  M2698-related TEAE: Hyperhidrosis: 0
  M2698-related TEAE: Hypokalaemia: 0
  M2698-related TEAE: Hypomagnesaemia: 0
  M2698-related TEAE: Insomnia: 1
  M2698-related TEAE: Investigations: 3
  M2698-related TEAE: Lipase increased: 0
  M2698-related TEAE: Lymphopenia: 1
  M2698-related TEAE: Metabolism and nutrition disorders: 0
  M2698-related TEAE: Mucosal inflammation: 0
  M2698-related TEAE: Nausea: 0
  M2698-related TEAE: Nervous system disorders: 1
  M2698-related TEAE: Nightmare: 0
  M2698-related TEAE: Onychomadesis: 0
  M2698-related TEAE: Paranoia: 0
  M2698-related TEAE: Photosensitivity reaction: 0
  M2698-related TEAE: Posterior reversible encephalopathy syndrome: 0
  M2698-related TEAE: Pruritus generalised: 0
  M2698-related TEAE: Psychiatric disorders: 2
  M2698-related TEAE: Rash: 1
  M2698-related TEAE: Rash maculo-papular: 0
  M2698-related TEAE: Skin and subcutaneous tissue disorders: 2
  M2698-related TEAE: Subjects with at least one event: 4
  M2698-related TEAE: Transaminases increased: 1
  M2698-related TEAE: Tremor: 0
  M2698-related TEAE: Vision blurred: 0
  M2698-related TEAE: Vomiting: 0
  M2698-related TEAE: White blood cell count decreased: 1
160 mg, n = 1
  DLT observed: grade 3 increase in gamma-glutamyltransferase
200 mg n=3
  M2698-related TEAE: Abnormal dreams: 0
  M2698-related TEAE: Affect lability: 0
  M2698-related TEAE: Alanine aminotransferase increased: 0
  M2698-related TEAE: Amylase increased: 0
  M2698-related TEAE: Anaemia: 1
  M2698-related TEAE: Angina pectoris: 0
  M2698-related TEAE: Anxiety: 0
  M2698-related TEAE: Aphasia: 0
  M2698-related TEAE: Ataxia: 0
  M2698-related TEAE: Blood and lymphatic system disorders: 1
  M2698-related TEAE: Blood creatine phosphokinase increased: 0
  M2698-related TEAE: Blood creatinine increased: 0
  M2698-related TEAE: Cardiac disorders: 0
  M2698-related TEAE: Cognitive disorder: 0
  M2698-related TEAE: Constipation: 0
  M2698-related TEAE: Decreased appetite: 1
